The record followed here is ChEMBL document CHEMBL1140266, “(2R)-2-methylchromane-2-carboxylic acids: discovery of selective PPARalpha agonists as hypolipidemic agents” (Bioorg Med Chem Lett, 2005).

The subject of test [1] is Cricetinae gen. sp. The format is functional. The conditions noted are these: at 100 mg/kg.
Test [2] deals with Cricetinae gen. sp. The format is functional. To be noted: at 100 mg/kg. The source holds these as a separate data set.

`CC(C)OC(=O)C(C)(C)Oc1ccc(C(=O)c2ccc(Cl)cc2)cc1` [FENOFIBRATE]: the Efficacy in test [1] is -43%; in test [2] it was -23%.
